The nature of data set [1]: Bi-directional Caco-2 transport assay. In kind it is in vitro ADME. To be noted: human, Caco-2, 5 μM. As to the method: (§1) The objective of the study is to evaluate test compounds as substrates for efflux transporter using Caco-2 cell line. To assess the functionality of P-glycoprotein (P-gp), loperamide was run as a positive control (Apical and basolateral HBSS pH 7.4).
(§2) 5 mM DMSO stock of test compounds and loperamide was diluted 1000-folds in HBSS having 0.1% DMSO to prepare concentrations of 5 μM.
(§3) Caco-2 cells were grown in DMEM (20% FBS) until 85-90% confluence. After attaining required confluence, cells were trypsinized and seeded into 24 well millcell plates at a density of 0.6×10^5 cells/insert. The plates were maintained for 21 days at 37° C. in CO2 incubator with change of medium every alternative day. Monolayer integrity was monitored by measuring Trans-epithelial electrical resistance (TEER) from day 15.
(§4) Caco-2 cell monolayer was washed twice with HBSS and incubated for 40 min in CO2 incubator. TEER values were measured and wells showing TEER values above 230 ohms·cm^2 were taken for experiments. The study was performed in loperamide and test compounds by adding 400 μL of loperamide prepared in HBSS in apical (A-B transport) followed by addition of 800 μL of HBSS on basal side and for B-A transport 800 μL of loperamide prepared in HBSS was dosed in basal followed by addition of 400 μL HBSS on apical side. At selected time points (0, 15, 30, 60 and 90 mins) an aliquot of 50 μL was collected from the receiver compartment for determination of test compound concentrations. The volume withdrawn was replaced immediately with HBSS buffer. TEER was measured at the end to the experiment to confirm any damage of monolayer while performing experiment. Those wells with TEER not meeting the criteria were excluded from the study.
(§5) A 50 μL of test compound samples collected at respective time points and submitted for LC-MS/MS analysis.
(§6) The apparent permeability (Papp) (A−B & B−A) of test compounds and positive control was calculated using the following formula: Papp=dQ/dt/A·Co where, dQ/dt=linear slope of test compound concentration in receptor chamber with time (0, 15, 30, 60 and 90 min) after correcting for dilution; A=area of the filter (0.7 cm^2); and Co=initial concentration of compound in the donor compartment.
(§7) Efflux ratio (RE) was calculated using the following equation: RE=PB/A/PA/B where PB/A and PA/B represent the apparent permeability of test compound from the basal to apical and apical to basal side of cell monolayer.
(§8) Recovery represents: (amount of the compound recovered from donor at end of incubation+cumulative amount of compound in acceptor at end of incubation+amount of the compound in cell lysate or assay well)/amount of compound in donor solution at time zero*100
(§9) Compounds are classified based on Papp values as follows:
(§10) A compound having efflux ratio of >2 is considered as having potential as a P-gp substrate.

For a further data set, the system named is P-gp. Briefly: Bi-directional Caco-2 transport assay. In kind it is in vitro ADME. To be noted: human, Caco-2; efflux ratio >2: potential P-gp substrate; read-out: Efflux Ratio (B-A/A-B). The protocol: as §1, §2, §3, §4, §5, §6, §7, §8, §9, §10
Background: Caco-2 monolayers are a common model of the intestinal barrier.

The next data set can be described thus: in vitro. To be noted: mouse; for fraction unbound at 4 h, 5 μM: plasma. It is filed as in vitro ADME, mice. The protocol: (§11) The objective of this study was to evaluate protein binding test compounds in mice plasma. This was accomplished by spiking the test compounds at a concentration of 5 μM into mice plasma and dialyzing against buffer until equilibrium is achieved (4 hours). Analyte area ratios of the test compounds in plasma and buffer were determined to calculate unbound and bound percentages of compound to the plasma proteins.
(§12) Phosphate buffered saline pack (0.1 M sodium phosphate and 0.15 M sodium chloride, pH 7.2) was dissolved in 500 mL of deionized water and pH was adjusted to 7.4 with 0.5 N NaOH.
(§13) 1 mM stock solutions were prepared in DMSO and diluted 200-folds in mice plasma to prepare a concentration of 5 μM. The final DMSO concentration in plasma was 0.5%.
(§14) Rapid equilibrium dialysis was performed with a rapid equilibrium dialysis (RED) device containing dialysis membrane with a molecular weight cut-off of 8,000 Daltons. Each dialysis insert contains two chambers. The red chamber is for plasma while the white chamber is for buffer.
(§15) A 200 μL aliquot of warfarin and test compound at 5 (triplicates) were separately added to the plasma chamber and 350 μL of phosphate buffer saline (pH 7.4) was added to the buffer chamber of the inserts. After sealing the RED device with an adhesive film, dialysis was performed in incubator at 37° C. with shaking at 100 RPM for 4 hours.
(§16) A 50 μL aliquot of warfarin and test compounds were added to four 0.5 mL microfuse tubes. Two aliquots were frozen immediately (0 minute sample). The other two aliquots were incubated at 37° C. for 4 hours along with the RED device.
(§17) Following dialysis, an aliquot of 50 μL was removed from each well (both plasma and buffer side) and diluted with equal volume of opposite matrix (dialyzed with the other matrix) to nullify the matrix effect. Similarly, 50 μL of buffer was added to recovery and stability samples. An aliquot of 100 μL was submitted for LCMS/MS analysis.
(§18) A 25 μL aliquot of warfarin and test compounds were crashed with 100 μL of acetonitrile containing internal standard (glipizide) and vortexed for 5 minutes. The samples were centrifuged at 4000 RPM at 4° C. for 10 min and 100 μL of supernatant was submitted for LC-MS/MS analysis. Samples were monitored for parent compound in MRM mode using LC-MS/MS.
(§19) The peak area ratios (analyte versus internal standard) obtained were used to determine the fraction of compound bound to plasma proteins.

The test system of another data set is mice plasma. Briefly: in vitro. In kind it is in vitro ADME. To be noted: mouse, plasma, 4 h, 5 μM. As to the method:
as §11, §12, §13, §14, §15, §16, §17, §18, §19

Turning to `CN(C)C(=O)C(CCN1CCC(O)(c2ccc(Cl)cc2)CC1)(c1ccccc1)c1ccccc1` [Loperamide, reference compound], the Papp A→B at 90 min, 5 μM in data set [1] (HBSS pH 7.4, apical to basal, read-out: Papp (A-B)) is 16 ± 2 nm/s. Further, in data set [1] (HBSS pH 7.4, basal to apical, read-out: Papp (B-A)), the Papp B→A at 90 min, 5 μM was 84 ± 12 nm/s. Moreover, in the data set on P-gp, the efflux ratio at 90 min, 5 μM is 5.2.
In turn, `CC(=O)CC(c1ccccc1)c1c(O)c2ccccc2oc1=O` (stereo not drawn) [Warfarin, reference compound] returned a recovery at 4 h, 5 µM in the data set “in vitro” (Plasma, pH 7.4) of 109%. Besides, the fraction unbound at 4 h, 5 μM in the data set “in vitro” (pH 7.4, % Bound Mean ± SD) was 0.069; in the data set “in vitro” (pH 7.4, % Bound R1), 0.071; in the data set “in vitro” (pH 7.4, % Bound R2) it was 0.075; in “in vitro” (pH 7.4, % Bound R3), 0.062. Also, the “% compound remaining at 4 hrs” value with mice plasma is on record as 94%.

One may read the Papp A→B as the apparent permeability from the apical to the basolateral side of a cell layer. What is called Papp B→A is the apparent permeability from the basolateral to the apical side of a cell layer. For orientation: fraction unbound means the share of the substance not bound to proteins or other matrix. A lower fraction unbound goes with little free substance.

The values above are taken from US12215106B2, “Pharmaceutical compounds and therapeutic methods” (RUTGERS, THE STATE UNIVERSITY OF NEW JERSEY, priority 2018, dated 2025).
